Measurements published in US9668960B2, “Methods useful in studying or modulating skin or hair pigmentation, plant extracts for use in compositions and cosmetic care method” (L V M H RECHERCHE, priority 2008, dated 2017).

Columns and labels:
[1] = test system: melanosome transfer from melanocytes to keratinocytes; experiment: Melanosome transfer after knockdown of Myo-X expression in epidermal melanocytes-keratinocytes co-culture; format: cell-based, human; details: Myo-X-silenced melanocytes cultured with normal keratinocytes 24 h; vs non-silencing control siRNA
Description: (§1) Knockdown of Myo-X using siRNA: A synthetic siRNA targeting human Myo-X (5′-[…]-3′) (SEQ ID No 1) and a non-silencing control, consisting of siRNA that has no known homology with mammalian genes (5′-[…]-3′) (SEQ ID No 2) was obtained from Qiagen, Valencia, Calif. A day before siRNA treatment, 5×10^5 epidermal melanocytes per well were plated onto six-well plates at 50-60% confluency and incubated at 37° C. for 12 h. Cells were then treated for 12 h with a final concentration of 25 nM siRNA by using HiPerFect Transfection Reagent (Qiagen, Valencia, Calif.) following the manufacturer's instructions. Fluorescence microscopy was used to verify that approximately 100% of the cells (using non-silencing control labelled with alexa fluor 488 labels) had taken up the siRNA. At 12 h, the cells from each well were replated into 8-well Lab-Tek® chamber slides. For co-culture studies siRNA treated melanocytes were seeded with normal keratinocytes (passage 2) in 8-well Lab-Tek® chamber slides at a cell density of 2×10^4 cells/well and in a ratio of 1 siRNA treated melanocyte to 10 normal keratinocytes. […]
Using this assay the rate of melanosome transfer from melanocytes to keratinocytes with non-silencing control siRNA conditions was determined (FIG. 8). […]

human Myo-X = experiment: Knockdown of Myo-X using siRNA in epidermal melanocytes (western blot, immunofluorescence); format: cell-based
Description: as §1, with “keratinocytes. At 24 h the co-culture were processed for double Immunofluorescence staining with gp100 and cytokeratin or Myo-X to study of the influence of gene knockdown on melanosome transfer, and parallel samples were assayed by immunofluorescence staining and western blot analysis to verify gene knockdown.” for “keratinocytes.”

tyrosinase [2] = experiment: DOPA oxidase detection for tyrosinase activity in pigmented normal human melanocytes; format: cell-based; details: 72 h
Description: The cells were prepared for SDS-PAGE and transblotted onto PVDF membranes. 70 μg of un-reduced protein extract without boiling was pipetted into the appropriate wells of 8% SDS-PAGE gels. […] The L-DOPA reaction was stopped by washing the membrane in distilled water and the membrane was scanned. […] In addition IBMX and NH4Cl (positive melanocytic modulators) and niacinamide (negative modulator) were used as controls. […] Normal human epidermal melanocytes (Female-52; p5) were treated for 72 h with L-18 (0.001%), L-19 (1%), L-20 (0.5%), L-21 (10 μg/ml), LVMH-22 (1%) and L-23 (0.05 μg/ml). Controls: Melanocytic modulators: IBMX (100 μM), NH4Cl (100 μM), and niacinamide (10 μM). (A) Protein extracts were electroblotted and membranes stained with L-DOPA for the estimation of tyrosinase activity.

FM55 melanoma cells = experiment: Melanin assay (melanogenesis) in moderately-pigmented FM55 melanoma; format: cell-based, human; details: 72 h
Description: Cells were then washed 3-times with sterile PBS and supplemented with 350 μl of either fresh serum-free RPMI medium (melanoma cells) or starved serum-free and BPE-free melanocyte medium (EM) and incubated at 37° C. and 5% CO2 for 24 h. Cells were then washed with sterile PBS 3-times and incubated with IBMX 1×10^-4 M at 37° C. and 5% CO2 for 12, 24, and 72 h. Cells were then gently washed 3-times with sterile PBS and fixed in ice-cold methanol for 10 minutes at -20° C. Slides were stored at -20° C. until immunocytochemistry was performed. […] The melanin standards were pipetted into a 96 well plate to produce a calibration curve for the assessment of melanin content in the test samples. 400 μl of 1 M NaOH was added to each cell pellet and dissolved on a heat block (100° C.) for 15 minutes. The pellets were vortexed vigorously and the solubilized pellet was pipetted into the same 96-well plate. The optical densities of the sample were read at […] on a DYNEX REVELATION 4.02 program. Melanin content of each test sample was read from the calibration curve. […] In addition IBMX and NH4Cl (positive melanocytic modulators) and niacinamide (negative modulator) were used as controls. […] Controls: Melanocytic modulators: IBMX (100 μM), NH4Cl (100 μM), and niacinamide (10 μM). (A) Melanin content was determined spectrophotometrically (475 nm) after sodium hydroxide solubilisation. […] (B). Results were expressed as the change in melanin content (pg/cell) compared to unstimulated control levels. Means are ±SEM of 3 independent experiments with *P<0.05, **P<0.01, ***P<0.001.

[3] = test system: Normal human epidermal melanocytes (F52; p5); experiment: Melanin assay (melanogenesis) in normal pigmented human melanocytes; format: cell-based; details: 72 h
Description: Cells were then washed 3-times with sterile PBS and supplemented with 350 μl of either fresh serum-free RPMI medium (melanoma cells) or starved serum-free and BPE-free melanocyte medium (EM) and incubated at 37° C. and 5% CO2 for 24 h. Cells were then washed with sterile PBS 3-times and incubated with IBMX 1×10^-4 M at 37° C. and 5% CO2 for 12, 24, and 72 h. Cells were then gently washed 3-times with sterile PBS and fixed in ice-cold methanol for 10 minutes at -20° C. Slides were stored at -20° C. until immunocytochemistry was performed. […] The melanin standards were pipetted into a 96 well plate to produce a calibration curve for the assessment of melanin content in the test samples. 400 μl of 1 M NaOH was added to each cell pellet and dissolved on a heat block (100° C.) for 15 minutes. The pellets were vortexed vigorously and the solubilized pellet was pipetted into the same 96-well plate. The optical densities of the sample were read at […] on a DYNEX REVELATION 4.02 program. Melanin content of each test sample was read from the calibration curve. […] In addition IBMX and NH4Cl (positive melanocytic modulators) and niacinamide (negative modulator) were used as controls. Visible change was not particularly evident in normal melanocyte due to their already high basal melanin levels (FIG. 1). By contrast, visible change was evident in melanoma cells basal melanin levels were low (FIG. 2). […] Normal human epidermal melanocytes (Female-52; p5) were treated for 72 h with L-18 (0.001%), L-19 (1%), L-20 (0.5%), L-21 (10 μg/ml), L-22 (1%) and L-23 (0.05 μg/ml). Controls: Melanocytic modulators: IBMX (100 μM), NH4Cl (100 μM), and niacinamide (10 μM). (A) Melanin content was determined spectro-photometrically (475 nm) after sodium hydroxide solubilise (B) Visible change was not particularly evident in these cells due to their already high basal melanin levels. Results were expressed as change in melanin content (pg/cell) compared to unstimulated control levels. Means are ±SEM of 3 independent experiments with *P<0.05, **P<0.01, ***P<0.001. NS-Not Significant

tyrosinase [4] = experiment: DOPA oxidase detection for tyrosinase activity in FM55 melanoma; format: cell-based, human; details: 72 h
Description: The cells were prepared for SDS-PAGE and transblotted onto PVDF membranes. 70 μg of un-reduced protein extract without boiling was pipetted into the appropriate wells of 8% SDS-PAGE gels. […] The L-DOPA reaction was stopped by washing the membrane in distilled water and the membrane was scanned. […] In addition IBMX and NH4Cl (positive melanocytic modulators) and niacinamide (negative modulator) were used as controls. […] Controls: Melanocytic modulators: IBMX (100 μM), NH4Cl (100 μM), and niacinamide (10 μM.). (A) Protein extracts were electroblotted and membranes stained with L-DOPA for the estimation of tyrosinase activity. (B) Densitometric scanning of band intensities and values were expressed as the fold increase compared to unstimulated control levels. Means are ±SEM of 3 independent experiments with *P<0.05, **P<0.01, ***P<0.001.

[5] = L-18 0.001%, L-19 1%, L-20 0.5%, L-21 10 μg/ml, L-22 1%, L-23 0.05 μg/ml, IBMX 100 μM, NH4Cl 100 μM, niacinamide 10 μM, vs basal

Changes in tyrosinase activity, F52 EMc % change (tyrosinase [2]; [5]) | Changes in tyrosinase activity, FM55 % change (tyrosinase [4]; same doses as E5, vs basal) | Compound | melanosome transfer reduced by [1] | expression of Myo-X compared to non-silencing control siRNA (human Myo-X; 25 nM siRNA, 12 h, immunofluorescence) | filopodia in Myo-X-silenced melanocytes (human Myo-X; anti-gp100 double-immunolabelling) | effect on tyrosinase (dopa oxidase) activity compared with basal levels (tyrosinase [2]; normal melanocytes (EM), doses as E5) | Changes in melanin levels, FM55 % change (FM55 melanoma cells; [5]) | Melanin content, FM55 (pg/cell) (FM55 melanoma cells; same doses as E3, basal 9.92) | effect on melanin content compared with basal levels (FM55 melanoma cells; FM55 melanoma cells, doses as E3) | Changes in melanin levels, F52 EM % change [3, 5] | Melanin content, F52 EM (pg/cell) ([3]; same doses as E1, basal 35.63) | effect on tyrosinase (dopa oxidase) activity compared with basal levels (tyrosinase [4]; FM55 melanoma cells, doses as E5)
 |  | siRNA targeting human Myo-X: synthetic siRNA targeting human Myo-X (5′-CAGCGGTATAAGAGAAATCAA-3′), obtained from Qiagen (listed as DNA, chemistry not given here; listed as Homo sapiens) | 80% | almost completely inhibited | absence of filopodia |  |  |  |  |  |  | 
+159.63% | +408.27% | Cl.N [NH4Cl] |  |  |  | dramatic increase in dopa oxidase activity of tyrosinase | +478.82% | (56.83) pg/cell | visible increases in melanogenesis | +166.17% | (94.83) pg/cell | dramatic increase in dopa oxidase activity of tyrosinase
